Test results taken from the NIST ThermoML archive (doi:10.1016/j.fluid.2007.06.001).
± gives the expanded uncertainty stated by the source.

Experiment: excess molar enthalpy (molar enthalpy of mixing); xn = mol fraction of the nth substance listed
Settings: Liquid

## CCCC[n+]1ccn(C)c1.O=S(=O)([N-]S(=O)(=O)C(F)(F)F)C(F)(F)F + CC1CCCCC1
363.15 K, 101.3 kPa, x2 = 0.1067
  excess molar enthalpy: 0.111 ± 0.0043 kcal/mol
363.15 K, 101.3 kPa, x2 = 0.2014
  excess molar enthalpy: 0.148 ± 0.00574 kcal/mol
363.15 K, 101.3 kPa, x2 = 0.2449
  excess molar enthalpy: 0.143 ± 0.0055 kcal/mol
363.15 K, 101.3 kPa, x2 = 0.286
  excess molar enthalpy: 0.137 ± 0.00526 kcal/mol
363.15 K, 101.3 kPa, x2 = 0.3621
  excess molar enthalpy: 0.123 ± 0.00478 kcal/mol
363.15 K, 101.3 kPa, x2 = 0.4308
  excess molar enthalpy: 0.111 ± 0.0043 kcal/mol
363.15 K, 101.3 kPa, x2 = 0.4932
  excess molar enthalpy: 0.099 ± 0.00406 kcal/mol
363.15 K, 101.3 kPa, x2 = 0.6022
  excess molar enthalpy: 0.0773 ± 0.00335 kcal/mol
363.15 K, 101.3 kPa, x2 = 0.6942
  excess molar enthalpy: 0.0587 ± 0.00263 kcal/mol
363.15 K, 101.3 kPa, x2 = 0.773
  excess molar enthalpy: 0.0439 ± 0.0021 kcal/mol
363.15 K, 101.3 kPa, x2 = 0.872
  excess molar enthalpy: 0.0258 ± 0.00153 kcal/mol

## CCCCCC[n+]1ccn(C)c1.O=S(=O)([N-]S(=O)(=O)C(F)(F)F)C(F)(F)F + CC(C)=O
353.15 K, 101 kPa, x2 = 0.02
  excess molar enthalpy: -0.0107 ± 0.00108 kcal/mol
353.15 K, 101 kPa, x2 = 0.0499
  excess molar enthalpy: -0.0253 ± 0.00153 kcal/mol
353.15 K, 101 kPa, x2 = 0.0999
  excess molar enthalpy: -0.0512 ± 0.00237 kcal/mol
353.15 K, 101 kPa, x2 = 0.1498
  excess molar enthalpy: -0.0795 ± 0.00335 kcal/mol
353.15 K, 101 kPa, x2 = 0.1998
  excess molar enthalpy: -0.106 ± 0.0043 kcal/mol
353.15 K, 101 kPa, x2 = 0.2997
  excess molar enthalpy: -0.158 ± 0.00598 kcal/mol
353.15 K, 101 kPa, x2 = 0.3996
  excess molar enthalpy: -0.202 ± 0.00765 kcal/mol
353.15 K, 101 kPa, x2 = 0.4996
  excess molar enthalpy: -0.239 ± 0.00884 kcal/mol
353.15 K, 101 kPa, x2 = 0.5996
  excess molar enthalpy: -0.26 ± 0.00956 kcal/mol
353.15 K, 101 kPa, x2 = 0.6997
  excess molar enthalpy: -0.268 ± 0.0098 kcal/mol
353.15 K, 101 kPa, x2 = 0.7998
  excess molar enthalpy: -0.25 ± 0.00932 kcal/mol
353.15 K, 101 kPa, x2 = 0.8999
  excess molar enthalpy: -0.182 ± 0.00693 kcal/mol
353.15 K, 101 kPa, x2 = 0.9499
  excess molar enthalpy: -0.117 ± 0.00454 kcal/mol

## CCCC[n+]1ccn(C)c1.O=S(=O)([N-]S(=O)(=O)C(F)(F)F)C(F)(F)F + CC(C)=O
353.15 K, 101 kPa, x2 = 0.05
  excess molar enthalpy: -0.031 ± 0.0017 kcal/mol
353.15 K, 101 kPa, x2 = 0.0999
  excess molar enthalpy: -0.0608 ± 0.00263 kcal/mol
353.15 K, 101 kPa, x2 = 0.1499
  excess molar enthalpy: -0.092 ± 0.00382 kcal/mol
353.15 K, 101 kPa, x2 = 0.1999
  excess molar enthalpy: -0.122 ± 0.00478 kcal/mol
353.15 K, 101 kPa, x2 = 0.2998
  excess molar enthalpy: -0.175 ± 0.00669 kcal/mol
353.15 K, 101 kPa, x2 = 0.4498
  excess molar enthalpy: -0.248 ± 0.00908 kcal/mol
353.15 K, 101 kPa, x2 = 0.5998
  excess molar enthalpy: -0.291 ± 0.0108 kcal/mol
353.15 K, 101 kPa, x2 = 0.6998
  excess molar enthalpy: -0.296 ± 0.0108 kcal/mol
353.15 K, 101 kPa, x2 = 0.7999
  excess molar enthalpy: -0.265 ± 0.0098 kcal/mol
353.15 K, 101 kPa, x2 = 0.8499
  excess molar enthalpy: -0.235 ± 0.0086 kcal/mol
353.15 K, 101 kPa, x2 = 0.8999
  excess molar enthalpy: -0.186 ± 0.00693 kcal/mol
353.15 K, 101 kPa, x2 = 0.95
  excess molar enthalpy: -0.118 ± 0.00454 kcal/mol

## CCCCCC[n+]1ccn(C)c1.O=S(=O)([N-]S(=O)(=O)C(F)(F)F)C(F)(F)F + CCC(C)=O
353.15 K, 101 kPa, x2 = 0.02
  excess molar enthalpy: -0.0125 ± 0.00112 kcal/mol
353.15 K, 101 kPa, x2 = 0.05
  excess molar enthalpy: -0.0296 ± 0.00167 kcal/mol
353.15 K, 101 kPa, x2 = 0.1
  excess molar enthalpy: -0.0578 ± 0.00263 kcal/mol
353.15 K, 101 kPa, x2 = 0.15
  excess molar enthalpy: -0.0902 ± 0.00359 kcal/mol
353.15 K, 101 kPa, x2 = 0.2001
  excess molar enthalpy: -0.12 ± 0.00478 kcal/mol
353.15 K, 101 kPa, x2 = 0.3001
  excess molar enthalpy: -0.17 ± 0.00645 kcal/mol
353.15 K, 101 kPa, x2 = 0.4001
  excess molar enthalpy: -0.215 ± 0.00813 kcal/mol
353.15 K, 101 kPa, x2 = 0.5001
  excess molar enthalpy: -0.25 ± 0.00932 kcal/mol
353.15 K, 101 kPa, x2 = 0.6001
  excess molar enthalpy: -0.274 ± 0.01 kcal/mol
353.15 K, 101 kPa, x2 = 0.7001
  excess molar enthalpy: -0.278 ± 0.0103 kcal/mol
353.15 K, 101 kPa, x2 = 0.8001
  excess molar enthalpy: -0.255 ± 0.00932 kcal/mol
353.15 K, 101 kPa, x2 = 0.9
  excess molar enthalpy: -0.181 ± 0.00693 kcal/mol
353.15 K, 101 kPa, x2 = 0.95
  excess molar enthalpy: -0.114 ± 0.00454 kcal/mol

## CCCC[n+]1ccn(C)c1.O=S(=O)([N-]S(=O)(=O)C(F)(F)F)C(F)(F)F + CCC(C)=O
353.15 K, 101 kPa, x2 = 0.0508
  excess molar enthalpy: -0.0292 ± 0.00165 kcal/mol
353.15 K, 101 kPa, x2 = 0.1015
  excess molar enthalpy: -0.0592 ± 0.00263 kcal/mol
353.15 K, 101 kPa, x2 = 0.1521
  excess molar enthalpy: -0.0906 ± 0.00359 kcal/mol
353.15 K, 101 kPa, x2 = 0.2026
  excess molar enthalpy: -0.118 ± 0.00454 kcal/mol
353.15 K, 101 kPa, x2 = 0.3035
  excess molar enthalpy: -0.172 ± 0.00645 kcal/mol
353.15 K, 101 kPa, x2 = 0.4541
  excess molar enthalpy: -0.239 ± 0.00884 kcal/mol
353.15 K, 101 kPa, x2 = 0.6039
  excess molar enthalpy: -0.282 ± 0.0103 kcal/mol
353.15 K, 101 kPa, x2 = 0.7034
  excess molar enthalpy: -0.289 ± 0.0105 kcal/mol
353.15 K, 101 kPa, x2 = 0.8026
  excess molar enthalpy: -0.259 ± 0.00956 kcal/mol
353.15 K, 101 kPa, x2 = 0.8521
  excess molar enthalpy: -0.229 ± 0.0086 kcal/mol
353.15 K, 101 kPa, x2 = 0.9015
  excess molar enthalpy: -0.181 ± 0.00693 kcal/mol
353.15 K, 101 kPa, x2 = 0.9508
  excess molar enthalpy: -0.112 ± 0.00454 kcal/mol

## CCCCCC[n+]1ccn(C)c1.O=S(=O)([N-]S(=O)(=O)C(F)(F)F)C(F)(F)F + CCCCCC
363.15 K, 101 kPa, x2 = 0.02
  excess molar enthalpy: 0.0124 ± 0.00112 kcal/mol
363.15 K, 101 kPa, x2 = 0.0501
  excess molar enthalpy: 0.035 ± 0.00182 kcal/mol
363.15 K, 101 kPa, x2 = 0.1002
  excess molar enthalpy: 0.073 ± 0.00311 kcal/mol
363.15 K, 101 kPa, x2 = 0.1503
  excess molar enthalpy: 0.104 ± 0.00406 kcal/mol
363.15 K, 101 kPa, x2 = 0.2003
  excess molar enthalpy: 0.123 ± 0.00478 kcal/mol
363.15 K, 101 kPa, x2 = 0.3003
  excess molar enthalpy: 0.126 ± 0.00502 kcal/mol
363.15 K, 101 kPa, x2 = 0.4004
  excess molar enthalpy: 0.107 ± 0.0043 kcal/mol
363.15 K, 101 kPa, x2 = 0.5004
  excess molar enthalpy: 0.0878 ± 0.00359 kcal/mol
363.15 K, 101 kPa, x2 = 0.6004
  excess molar enthalpy: 0.0711 ± 0.00311 kcal/mol
363.15 K, 101 kPa, x2 = 0.7003
  excess molar enthalpy: 0.0511 ± 0.00237 kcal/mol
363.15 K, 101 kPa, x2 = 0.8002
  excess molar enthalpy: 0.0328 ± 0.00177 kcal/mol
363.15 K, 101 kPa, x2 = 0.9001
  excess molar enthalpy: 0.0157 ± 0.00122 kcal/mol
363.15 K, 101 kPa, x2 = 0.9501
  excess molar enthalpy: 0.00801 ± 0.00098 kcal/mol

## CCCC[n+]1ccn(C)c1.O=S(=O)([N-]S(=O)(=O)C(F)(F)F)C(F)(F)F + CCCCCC
363.15 K, 101.3 kPa, x2 = 0.02
  excess molar enthalpy: 0.0134 ± 0.00117 kcal/mol
363.15 K, 101.3 kPa, x2 = 0.0501
  excess molar enthalpy: 0.0353 ± 0.00184 kcal/mol
363.15 K, 101.3 kPa, x2 = 0.1002
  excess molar enthalpy: 0.0689 ± 0.00287 kcal/mol
363.15 K, 101.3 kPa, x2 = 0.1503
  excess molar enthalpy: 0.0949 ± 0.00382 kcal/mol
363.15 K, 101.3 kPa, x2 = 0.2003
  excess molar enthalpy: 0.109 ± 0.0043 kcal/mol
363.15 K, 101.3 kPa, x2 = 0.3004
  excess molar enthalpy: 0.0941 ± 0.00382 kcal/mol
363.15 K, 101.3 kPa, x2 = 0.5004
  excess molar enthalpy: 0.0662 ± 0.00287 kcal/mol
363.15 K, 101.3 kPa, x2 = 0.7004
  excess molar enthalpy: 0.038 ± 0.00191 kcal/mol
363.15 K, 101.3 kPa, x2 = 0.9002
  excess molar enthalpy: 0.0116 ± 0.0011 kcal/mol

## CCn1cc[n+](C)c1.O=S(=O)([N-]S(=O)(=O)C(F)(F)F)C(F)(F)F + CCCCCC
353.15 K, 101.3 kPa, x2 = 0.0239
  excess molar enthalpy: 0.0297 ± 0.00167 kcal/mol
353.15 K, 101.3 kPa, x2 = 0.0472
  excess molar enthalpy: 0.0535 ± 0.00239 kcal/mol
353.15 K, 101.3 kPa, x2 = 0.07
  excess molar enthalpy: 0.066 ± 0.00287 kcal/mol
353.15 K, 101.3 kPa, x2 = 0.0923
  excess molar enthalpy: 0.0787 ± 0.00335 kcal/mol
353.15 K, 101.3 kPa, x2 = 0.1354
  excess molar enthalpy: 0.0756 ± 0.00311 kcal/mol
353.15 K, 101.3 kPa, x2 = 0.2162
  excess molar enthalpy: 0.0688 ± 0.00287 kcal/mol
353.15 K, 101.3 kPa, x2 = 0.3916
  excess molar enthalpy: 0.0521 ± 0.00239 kcal/mol
353.15 K, 101.3 kPa, x2 = 0.6588
  excess molar enthalpy: 0.0288 ± 0.00163 kcal/mol
353.15 K, 101.3 kPa, x2 = 0.8528
  excess molar enthalpy: 0.0125 ± 0.00112 kcal/mol

## CCn1cc[n+](C)c1.O=S(=O)([N-]S(=O)(=O)C(F)(F)F)C(F)(F)F + CCCO
323.15 K, 101.3 kPa, x2 = 0.0418
  excess molar enthalpy: 0.0767 ± 0.00311 kcal/mol
323.15 K, 101.3 kPa, x2 = 0.0812
  excess molar enthalpy: 0.15 ± 0.00574 kcal/mol
323.15 K, 101.3 kPa, x2 = 0.1536
  excess molar enthalpy: 0.27 ± 0.01 kcal/mol
323.15 K, 101.3 kPa, x2 = 0.277
  excess molar enthalpy: 0.451 ± 0.0163 kcal/mol
323.15 K, 101.3 kPa, x2 = 0.4629
  excess molar enthalpy: 0.626 ± 0.0222 kcal/mol
323.15 K, 101.3 kPa, x2 = 0.6741
  excess molar enthalpy: 0.623 ± 0.0222 kcal/mol
323.15 K, 101.3 kPa, x2 = 0.8082
  excess molar enthalpy: 0.488 ± 0.0174 kcal/mol
323.15 K, 101.3 kPa, x2 = 0.9602
  excess molar enthalpy: 0.151 ± 0.00574 kcal/mol

## CCCCCC[n+]1ccn(C)c1.O=S(=O)([N-]S(=O)(=O)C(F)(F)F)C(F)(F)F + CCO
353.15 K, 101 kPa, x2 = 0.0506
  excess molar enthalpy: 0.0647 ± 0.00287 kcal/mol
353.15 K, 101 kPa, x2 = 0.1012
  excess molar enthalpy: 0.132 ± 0.00502 kcal/mol
353.15 K, 101 kPa, x2 = 0.1517
  excess molar enthalpy: 0.202 ± 0.00765 kcal/mol
353.15 K, 101 kPa, x2 = 0.2022
  excess molar enthalpy: 0.269 ± 0.0098 kcal/mol
353.15 K, 101 kPa, x2 = 0.4534
  excess molar enthalpy: 0.51 ± 0.0182 kcal/mol
353.15 K, 101 kPa, x2 = 0.6033
  excess molar enthalpy: 0.551 ± 0.0196 kcal/mol
353.15 K, 101 kPa, x2 = 0.9012
  excess molar enthalpy: 0.257 ± 0.00956 kcal/mol
353.15 K, 101 kPa, x2 = 0.9506
  excess molar enthalpy: 0.138 ± 0.00526 kcal/mol
